Data set [1] concerns mouse neurospheres (neural stem cells). The experiment in a line: microsatellite genomic instability in neurospheres. The data set is classed as cell-based. On the procedure:
By using specific fluorescence-labeled primers for microsatellite sequence markers, the genomic stability of neurospheres in normoxia (Nx), hypoxia (Hx) or hypoxia+FM19G11 (Hx+19G11) was analyzed. […] The treatment with FM19G11 enabled the recovery of the normoxia profiles (used as a reference or control), thus preventing the genomic instability caused by hypoxia.

The subject of the next data set is HT29. In words: clonicity assay, HT29. The class given is cell-based. The conditions noted are these: Homo sapiens, HT-29; stimulated 72 hours, colonies counted after 10 days; read-out: survival IC50. On the procedure: Clonicity assays were conducted to determine the toxicity of FM19G11 in p53-proficient (HT29 and HCT116/p53^+/+) and p53-deficient (HCT116/p53^-/-) tumor cells. Once the HT-29, HCT116/p53^+/+ and HCT116/p53^-/- cells were adhered to the culture plate, they were stimulated with increasing concentrations of FM19G11 (0.5, 1, 5, 10, 20, 50 µM) for 72 hours. After 10 days of stimulation, the number of colonies formed in the plates of treated and untreated cells was determined.
Results of the clonicity assays of HT29 human colon cancer cells, HCT116 cells treated with FM19G11 were monitored up to 10 after the treatment (Figure 28). The IC50 was determined by extrapolating the percentage with the concentration. FM19G11 was used at concentrations: 0.5, 1, 5, 10, 50, 100, 200 µM

For data set [2], the system named is medaka (Oryzias latipes) embryos. In words: toxicity on medaka embryos. The class given is in vivo. On the procedure:
In the first place, for the zebrafish embryos, various experiments were performed with 10, 6 and 4 embryos per well in a volume of 100 microl, in early (between 1 and 8) and late (more than 20) stages of 1 x Yamamoto buffer, culturing the embryos at 26°C for 24 hours, and the compound FM19G11 was subsequently added at concentrations of 10 microM and 50 microM with negative controls without additives to analyze the endogenous mortality of the embryos and with 1% and 5% DMSO (solvent of the compound) to analyze the mortality of the solvent. In all the cases the solvent induced a high lethality between 60% and 90%.
The same experiments were performed using medaka embryos for which DMSO has not lethal effects at concentrations less than 5%. Six embryos per well, a final volume of 100 µl and independent experiments with embryos in blastula and neurula stages were used.
To prevent the possibility that FM19G11 may not be traversing the protective layer of the embryo (chorion), the compound at a concentration of 0.5 mM was microinjected into the chorionic space (between the embryo and the chorion). Experiment 1: n=15, 20% induced mortality, DMSO control = 0%. The result was the same, no anomaly being observed in the development of the embryo, nor any effect on the viability of the injected embryos. The images of Figure 19 show medaka embryos subjected to the treatment with FM19G11 at 50 microM for 4 days (A) 10 medaka embryos in a well of a multi-well plate; B and C, photos of embryos treated with 50 microM FM19G11 for 1 day; and D a photo of a medaka embryo which was not treated with the compound.

In another data set the test system is HCT116/p53+/+. In words: anchorage-independent growth in semisolid agar, HCT116/p53+/+. The settings on record: 0.5 µM, 10 days, versus DMSO, p ≤ 0.033. The data set is classed as cell-based, human. The protocol:
Anchorage-independent cell growth is a study which allows predicting the tumorigenicity of tumor cells in vivo. Anchorage-independent cell growth studies were performed for HT29, HCT116/p53^+/+ and HCT116/p53^-/- cells in semisolid agar which were monitored daily to determine the efficiency of the formation of colonies in the presence of carrier (DMSO) or FM19G11. To that end, the starting material was 75 x 10^3 cells suspended in semisolid agar, which were maintained until 10 days later. […] A reduction of the formation of colonies in the HCT116/p53^-/- cells is not observed. The growth of colonies was quantified in three independent experiments by means of counting colonies in the 4 x magnification optical field of an inverted optical microscope.

Another data set relates to HCT116/p53+/+ cells. The experiment in a line: cell cycle distribution by flow cytometry, HCT116/p53+/+. The class given is cell-based, human. An excerpt: It was investigated if the activation of DDR by FM19G11 caused a delay in the cycle progress through the G1/S phases in HCT116 tumor cells, as has been described for other DNA-damaging agents (.Lim, DS, Kim, ST, Xu, B, Maser, RS, Lin, J, Petrini, JH et al., (2000) ATM phosphorylates p95/nbs1 in an S-phase checkpoint pathway. Nature 404: 613-7.; Jazayeri, A, Falck, J, Lukas, C, Bartek, J, Smith, GC, Lukas, J et al., (2006) ATM- and cell cycle-dependent regulation of ATR in response to DNA double-strand breaks. Nat Cell Biol 8: 37-45; Liu, JS, Kuo, SR, Beerman, TA and Melendy, T, (2003) Induction of DNA damage responses by adozelesin is S phase-specific and dependent on active replication forks. Mol Cancer Ther 2: 41-7; Ranjan, P and Heintz, NH, (2006) S-phase arrest by reactive nitrogen species is bypassed by okadaic acid, an inhibitor of protein phosphatases PP1/PP2A. Free Radic Biol Med 40: 247-59.). The HCT116 p53+/+ and HCT116 p53-/- cells were exposed for 3 or 6 days to the carrier (DMSO) or to FM19G11 (0.5, 1, 5, 10 µM). […] (Figure 24).
A- The HCT116/p53+/+ cells and B-HCT116/p53-/- cells were exposed to different concentrations of FM19G11 (0.5, 1, 5, 10 µM) or carrier for 3 or 6 days to analyze the distribution of cells in the different cell cycle phases by means of flow cytometry. […]
(In general: In flow cytometry, cells or beads pass a laser one at a time.)

These results are taken from patent publication EP2292587A1, “PHARMACEUTICAL COMPOSITION FOR INHIBITING THE TRANSCRIPTION FACTOR INDUCIBLE BY HYPOXIA, MODULATORS OF PATHOLOGICAL PROCESSES OF ANGIOGENESIS, ONCOGENESIS, INFLAMMATION, APOPTOSIS, AND CELLULAR THERAPY” (Fundacion De La Comunidad Valenciana Centro De …, priority 2008, dated 2009).

As usually defined, the IC50 is the concentration that gives 50% inhibition. `Cc1ccc(C(=O)COC(=O)c2cccc(NC(=O)c3ccc([N+](=O)[O-])cc3[N+](=O)[O-])c2)cc1` [FM19G11, 2-oxo-2-(p-tolyl)ethyl 3-((2,4-dinitro)benzamido)benzoate]: in data set [1], the “genomic instability caused by hypoxia (microsatellite markers mBAT59, mBAT67)” value is recorded as “prevented”. Further, in the data set on HT29, the IC50 worked out at 1000 nM. Moreover, the induced mortality in data set [2] (0.5 mM microinjected into the chorionic space, n=15) is on record as 20%. Besides, the “viability of the embryos” value in data set [2] (10 microM and 50 microM in the well) is reported as “does not affect the viability”. Moreover, the lethality entry in data set [2] (10 microM and 50 microM in the well, blastula and neurula stages) is recorded as “no significant lethality”. The “growth of colonies in semisolid agar” value with HCT116/p53+/+ is “significant decrease”. In addition, in the data set with HCT116/p53+/+ cells (5 or 10 µM, after 72 hours, more evident after 6 days), the “G1/S phase cycle arrest” value is “caused G1/S phase cycle arrest”. The “S phase cycle arrest on simultaneous incubation with rapamycin” value with HCT116/p53+/+ cells (FM19G11 (10 µM) + rapamycin (100 pmol)) was “prevented”.
